Measured values from patent US20230053540A1, “TREATMENT OF LIVER INJURY” (Massachusetts Institute of Technology, priority 2019, published 2023).

Test system: hepatocytes
Assay: Seq-Well scRNA-Seq of hepatocytes after APAP overdose (signature scores, DEG vs untreated)
Type: in vivo, mouse
Details: APAP vs UT

For CC(=O)Nc1ccc(O)cc1 [APAP, acetaminophen], the “Ndufb4 logFC” value was −0.4537, the “Ndufb6 logFC” value was −0.5077 and the “Ndufb9 logFC” value was −0.5038. For the same compound, the “Ndufb11 logFC” value was −0.5097, the “Ndufs6 logFC” value was −0.5379 and the “Nedd4 logFC” value was 0.3774. For the same compound, the “Nit2 logFC” value was −0.4859, the “Nolc1 logFC” value was 0.4722 and the “Nop56 logFC” value was 0.2657. The “Nr5a2 logFC” value was 0.322, the “Nrp1 logFC” value was 0.3608 and the “Oaz1 logFC” value was −0.4185. For the same compound, the “Orm2 logFC” value was 0.2715, the “Pah logFC” value was −0.5221 and the “Park7 logFC” value was −0.2602. The “Pdcd4 logFC” value was 0.4882, the “Pdia4 logFC” value was 0.4882 and the “Pdia6 logFC” value was −0.39. For the same compound, the “Pemt logFC” value was −0.5512, the “Pfkfb2 logFC” value was 0.29 and the “Picalm logFC” value was 0.7545. For the same compound, the “Pik3c2a logFC” value was 0.3249, the “Plec logFC” value was 0.4675 and the “Plg logFC” value was 0.2617. For the same compound, the “Ppan logFC” value was 0.2724, the “Ppib logFC” value was −0.5897 and the “Ppm1k logFC” value was −0.5584. For the same compound, the “Ppp1r3b logFC” value was −0.4027, the “Ppp2r5a logFC” value was −0.2605 and the “Prg4 logFC” value was 0.4306. The “Prkd3 logFC” value was 0.3665, the “Pten logFC” value was 0.3559 and the “Ptms logFC” value was 0.2678. For the same compound, the “Ptpn1 logFC” value was 0.4163, the “Ptpn12 logFC” value was 0.3342 and the “Qdpr logFC” value was −0.5236. For the same compound, the “Qsox1 logFC” value was 0.3424, the “Rab1 logFC” value was 0.3526 and the “Rad54l2 logFC” value was 0.3887. For the same compound, the “Ranbp2 logFC” value was 0.5985, the “Rarres2 logFC” value was −0.5522 and the “Rdh16 logFC” value was 0.2692. For the same compound, the “Rgs2 logFC” value was 0.3957, the “Rnd3 logFC” value was 0.3655 and the “Rock2 logFC” value was 0.5941. For the same compound, the “Rora logFC” value was 0.6444, the “Rpl32 logFC” value was −0.5322 and the “Rpl36a1 logFC” value was −0.4755. For the same compound, the “Rplp1 logFC” value was −0.5047, the “Rpn1 logFC” value was 0.4124 and the “Rps2 logFC” value was −0.3879. For the same compound, the “Rrbp1 logFC” value was 0.3069, the “S100a1 logFC” value was −0.3762 and the “Saa4 logFC” value was −0.571. The “Sar1b logFC” value was −0.3176, the “Sat1 logFC” value was 0.6887 and the “Sc5d logFC” value was −0.5009. The “Sdad1 logFC” value was 0.3124, the “Sdc3 logFC” value was 0.3598 and the “Sdc4 logFC” value was 0.6196. The “Sdhd logFC” value was −0.3353, the “Sds logFC” value was −0.407 and the “Sec61a1 logFC” value was 0.3139. The “Selenbp1 logFC” value was −0.4937, the “Serp1 logFC” value was 0.3124 and the “Serpina3c logFC” value was −0.4725. For the same compound, the “Sfxn1 logFC” value was 0.3049, the “Slc2a2 logFC” value was −0.3123 and the “Slc3a1 logFC” value was 0.341. The “Slc10a2 logFC” value was 0.299, the “Slc20a1 logFC” value was 0.3572 and the “Slc37a4 logFC” value was 0.2683. The “Slc38a3 logFC” value was −0.4098, the “Slc38a4 logFC” value was 0.2637 and the “Slco1a1 logFC” value was −0.3628. For the same compound, the “Son logFC” value was 0.5429, the “Sorl1 logFC” value was 0.3067 and the “Sparcl1 logFC” value was −0.2536. For the same compound, the “Spcs3 logFC” value was 0.3942, the “Spred1 logFC” value was 0.3884 and the “Sqstm1 logFC” value was 0.7432. The “Ssr1 logFC” value was 0.3278, the “Ssr4 logFC” value was −0.5076 and the “St3gal1 logFC” value was 0.5287. The “Stard4 logFC” value was 0.3515, the “Stard10 logFC” value was −0.3383 and the “Stat3 logFC” value was 0.7154. The “Stk40 logFC” value was 0.5364, the “Tacc2 logFC” value was 0.3293 and the “Tatdn2 logFC” value was 0.3733. The “Tbc1d15 logFC” value was 0.4886, the “Tcerg1 logFC” value was 0.3575 and the “Thrsp logFC” value was −0.725. The “Tiparp logFC” value was 0.5456, the “Tjp2 logFC” value was 0.4115 and the “Tlcd2 logFC” value was −0.5945. For the same compound, the “Tm4sf4 logFC” value was 0.5126, the “Tmed7 logFC” value was 0.3868 and the “Tmem30a logFC” value was 0.3328. For the same compound, the “Tmem87b logFC” value was 0.4344, the “Tmem106b logFC” value was 0.2802 and the “Tmem256 logFC” value was −0.5185. The “Tnfrsf1a logFC” value was 0.5996, the “Tra2a logFC” value was 0.7123 and the “Tram1 logFC” value was 0.4111. For the same compound, the “Trip12 logFC” value was 0.3283, the “Tsc22d2 logFC” value was 0.3911 and the “Tsku logFC” value was 0.3676. For the same compound, the “Tsr1 logFC” value was 0.3603, the “Ttc39c logFC” value was −0.6363 and the “Tubb2a logFC” value was 0.7494. The “Ubxn4 logFC” value was 0.2503, the “Ucp2 logFC” value was 0.2612 and the “Ugdh logFC” value was 0.6331. For the same compound, the “Uggt1 logFC” value was 0.2845, the “Ugt2a3 logFC” value was −0.3334 and the “Uox logFC” value was −0.5531. For the same compound, the “Upb1 logFC” value was −0.4187, the “Upp2 logFC” value was −0.6903 and the “Uqcr10 logFC” value was −0.4519. For the same compound, the “Uqcr11 logFC” value was −0.6031, the “Uqcrh logFC” value was −0.4292 and the “Usmg5 logFC” value was −0.4305. The “Uso1 logFC” value was 0.3881, the “Usp4 logFC” value was 0.3247 and the “Usp9x logFC” value was 0.4076. For the same compound, the “Vkorc1 logFC” value was −0.4042, the “Vsig4 logFC” value was 0.4833 and the “Wfdc17 logFC” value was 0.4867. For the same compound, the “Xbp1 logFC” value was 0.6032, the “Ywhag logFC” value was 0.5824 and the “Zfp683 logFC” value was −0.4217. The “mmu-mir-6236 logFC” value was 0.7875, the “mt-Atp6 logFC” value was −0.5737 and the “mt-Nd6 logFC” value was −0.4779. For the same compound, the “mt-Tm logFC” value was 0.2847, the “mt-Tq logFC” value was 0.2879 and the “15-Sep logFC” value (composite DEG) was −0.4092. For the same compound, the “0610005C13Rik logFC” value (composite DEG) was −0.4251, the “0610011F06Rik logFC” value (composite DEG) was −0.3037 and the “1100001G20Rik logFC” value (composite DEG) was −0.8516. For the same compound, the “1110001J03Rik logFC” value (composite DEG) was −0.4328, the “1500011K16Rik logFC” value (composite DEG) was −0.3296 and the “1500017E21Rik logFC” value (composite DEG) was −0.461. The “1700017B05Rik logFC” value (composite DEG) was 0.3307, the “1810022K09Rik logFC” value (composite DEG) was −0.3001 and the “2010003K11Rik logFC” value (composite DEG) was 0.5884. For the same compound, the “2010107E04Rik logFC” value (composite DEG) was −0.3182, the “2410015M20Rik logFC” value (composite DEG) was −0.4021 and the “2810007J24Rik logFC” value (composite DEG) was −0.9143. The “AW112010 logFC” value (composite DEG) was −0.2981, the “Aadat logFC” value (composite DEG) was −0.3186 and the “Aass logFC” value (composite DEG) was 0.4775. The “Abca6 logFC” value (composite DEG) was 0.3328, the “Abcb4 logFC” value (composite DEG) was 0.4947 and the “Abcc3 logFC” value (composite DEG) was 0.3638. The “Abcd2 logFC” value (composite DEG) was 0.2851, the “Abcd3 logFC” value (composite DEG) was −0.2718 and the “Abhd14b logFC” value (composite DEG) was −0.3937. The “Acad11 logFC” value (composite DEG) was 0.3571, the “Acadl logFC” value (composite DEG) was 0.3162 and the “Acads logFC” value (composite DEG) was −0.3242. For the same compound, the “Acat1 logFC” value (composite DEG) was 0.3689, the “Acbd5 logFC” value (composite DEG) was −0.3952 and the “Acly logFC” value (composite DEG) was 0.3288. For the same compound, the “Aco2 logFC” value (composite DEG) was 0.2859, the “Acot1 logFC” value (composite DEG) was 0.3078 and the “Acot12 logFC” value (composite DEG) was 0.3078. For the same compound, the “Acsl1 logFC” value (composite DEG) was −0.3703, the “Acsm1 logFC” value (composite DEG) was −0.3692 and the “Actb logFC” value (composite DEG) was 1.06. The “Actn4 logFC” value (composite DEG) was 0.3124, the “Acy3 logFC” value (composite DEG) was −0.3137 and the “Adamts1 logFC” value (composite DEG) was 0.2826. The “Adck3 logFC” value (composite DEG) was −0.8761, the “Adh1 logFC” value (composite DEG) was −1.255 and the “Adtrp logFC” value (composite DEG) was −0.3664. For the same compound, the “Aff4 logFC” value (composite DEG) was 0.6163, the “Agpat2 logFC” value (composite DEG) was −0.2982 and the “Agpat6 logFC” value (composite DEG) was 0.3963. The “Agpat9 logFC” value (composite DEG) was 0.327, the “Agxt logFC” value (composite DEG) was −0.2584 and the “Ahcy logFC” value (composite DEG) was −0.563. For the same compound, the “Ak2 logFC” value (composite DEG) was −0.3451, the “Akap11 logFC” value (composite DEG) was 0.3464 and the “Akap13 logFC” value (composite DEG) was 0.4953. The “Akr1a1 logFC” value (composite DEG) was −0.3269, the “Akr1c19 logFC” value (composite DEG) was −0.2727 and the “Akr1d1 logFC” value (composite DEG) was 0.361. For the same compound, the “Alad logFC” value (composite DEG) was −0.4206, the “Aldh4a1 logFC” value (composite DEG) was −0.2907 and the “Aldh9a1 logFC” value (composite DEG) was 0.4159. For the same compound, the “Aldob logFC” value (composite DEG) was 0.3655, the “Amacr logFC” value (composite DEG) was −0.4136 and the “Amy1 logFC” value (composite DEG) was 0.4327. For the same compound, the “Anapc13 logFC” value (composite DEG) was −0.3642, the “Ankrd11 logFC” value (composite DEG) was 0.4156 and the “Anp32a logFC” value (composite DEG) was −0.317. The “Apc logFC” value (composite DEG) was 0.6067, the “Apcs logFC” value (composite DEG) was 0.7584 and the “Aplp2 logFC” value (composite DEG) was 0.3394. For the same compound, the “Apoa4 logFC” value (composite DEG) was 1.368.
